This assay deals with Aβ. Nature of the assay: Effect of agents on Cu^2+-induced SDS-resistant Aβ polymerization. In kind it is biochemical, human. The procedure: Cu^2+-induced SDS-resistant oligomerization of Aβ: Aβ (2.5 μM), 150 mM NaCl, 20 mM hepes (pH 6.6, 7.4, 9) with or without ZnCl2 or CuCl2. Following incubation (37° C.), aliquots of each reaction (2 ng peptide) were collected at 0 d, 1 d, 3 d and 5 d and western blotted using anti-Aβ monoclonal antibody 8E10 (FIG. 9). Migration of the molecular size markers are indicated (kDa). […] Cu^2+ (2-30 μM) induced SDS-resistant polymerization of peptide. […] It should be noted that other means of visualizing and/or determining the presence or absence of polymerization other than western blot analysis may be used. Such other means include but are not limited to density sedimentation by centrifugation of the samples.
It is possible that the decreased polymerization may be due to chelation of Cu^2+ by BC, however given the low binding affinity of BC for Cu^2+ compared with Aβ, it seems likely that the chelation of Cu^+ by BC prevents it from inducing SDS-resistant Ad polymerization. Therefore, Aβ may undergo a hydroxyl radical modification that promotes its assembly into SDS-resistant polymers.

From US20020082273A1, “Agents for use in the treatment of alzheimer's disease” (priority 1998, published 2002) come the findings set out here.

On to `Cl.O=C(O)CCP(CCC(=O)O)CCC(=O)O` [TCEP, Tris(2-Carboxyethyl)-Phosphine Hydrochloride], for which the “effect on Cu^2+-induced SDS-resistant Aβ polymerization” value is “significantly reduced the level of polymerization”.
